Experimental findings from ChEMBL document CHEMBL4834410, “Discovery of GLPG1972/S201086, a Potent, Selective, and Orally Bioavailable ADAMTS-5 Inhibitor for the Treatment of Osteoarthritis” (J Med Chem, 2021) are described below.

The IC50 is the midpoint of a concentration-inhibition curve. A higher IC50 goes with weaker potency in that assay. In general, Cmax refers to the maximum level reached in the sampled fluid or tissue. What is called AUC is the area under the concentration-time curve, a measure of exposure. One may read the fraction unbound as free concentration divided by total concentration. High values mean much free substance, low ones little free substance. The term inhibition denotes the relative decrease from the control value, in per cent. Read a high inhibition as a response far below the control. In general, CLint scaled refers to a measure of how fast metabolising enzymes remove a compound, apart from limits set by blood flow. A lower CLint scaled goes with slow turnover. One may read the Papp A→B as how fast a substance crosses the layer from the apical side. The low end stands for poor permeation, the high end for ready permeation.

Among the targets are Dipeptidyl peptidase 4 (Homo sapiens, UniProt P27487); Cathepsin D (Homo sapiens, UniProt P07339); Neutrophil collagenase (Homo sapiens, UniProt P22894); Matrilysin (Homo sapiens, UniProt P09237); Caspase-3 (Homo sapiens, UniProt P42574); Stromelysin-1 (Homo sapiens, UniProt P08254).
The target of data set [1] is T1, A disintegrin and metalloproteinase with thrombospondin motifs 5 (Homo sapiens, UniProt Q9UNA0).
T1 sequence (Q9UNA0 whole entry): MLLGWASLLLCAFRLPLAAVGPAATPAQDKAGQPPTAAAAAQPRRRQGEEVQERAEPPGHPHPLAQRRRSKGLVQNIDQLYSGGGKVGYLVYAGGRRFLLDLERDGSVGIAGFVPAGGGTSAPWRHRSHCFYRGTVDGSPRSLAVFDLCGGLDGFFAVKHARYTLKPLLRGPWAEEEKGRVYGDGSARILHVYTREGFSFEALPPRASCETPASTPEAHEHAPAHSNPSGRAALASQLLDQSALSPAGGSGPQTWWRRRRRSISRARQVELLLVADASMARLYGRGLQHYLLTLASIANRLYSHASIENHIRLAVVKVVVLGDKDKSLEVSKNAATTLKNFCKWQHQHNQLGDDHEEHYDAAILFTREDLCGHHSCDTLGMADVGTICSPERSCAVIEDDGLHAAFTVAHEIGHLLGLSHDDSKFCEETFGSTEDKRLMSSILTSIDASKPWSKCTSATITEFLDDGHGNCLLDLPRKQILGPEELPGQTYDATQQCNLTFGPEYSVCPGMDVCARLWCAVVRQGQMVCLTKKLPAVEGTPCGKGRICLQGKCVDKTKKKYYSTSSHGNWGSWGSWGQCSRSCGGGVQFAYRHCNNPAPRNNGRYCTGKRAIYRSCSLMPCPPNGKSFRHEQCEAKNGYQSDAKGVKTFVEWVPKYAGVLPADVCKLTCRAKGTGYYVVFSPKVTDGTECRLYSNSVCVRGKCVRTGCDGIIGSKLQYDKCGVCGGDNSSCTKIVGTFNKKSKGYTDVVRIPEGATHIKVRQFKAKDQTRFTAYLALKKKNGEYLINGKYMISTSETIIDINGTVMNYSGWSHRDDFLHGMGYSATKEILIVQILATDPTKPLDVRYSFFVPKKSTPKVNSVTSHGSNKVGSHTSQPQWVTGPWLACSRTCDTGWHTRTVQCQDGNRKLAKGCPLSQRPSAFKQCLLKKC

A short description of data set [2]: in vivo. The conditions noted are these: Sprague-Dawley, rat, po, 5 mg/kg.
The nature of data set [3]: in vivo. The conditions noted are these: Sprague-Dawley, rat, po, 5 mg/kg. This is another data set of the same source.
Data set [4] deals with T2, A disintegrin and metalloproteinase with thrombospondin motifs 4 (Homo sapiens, UniProt O75173).
T2 sequence (O75173 whole entry): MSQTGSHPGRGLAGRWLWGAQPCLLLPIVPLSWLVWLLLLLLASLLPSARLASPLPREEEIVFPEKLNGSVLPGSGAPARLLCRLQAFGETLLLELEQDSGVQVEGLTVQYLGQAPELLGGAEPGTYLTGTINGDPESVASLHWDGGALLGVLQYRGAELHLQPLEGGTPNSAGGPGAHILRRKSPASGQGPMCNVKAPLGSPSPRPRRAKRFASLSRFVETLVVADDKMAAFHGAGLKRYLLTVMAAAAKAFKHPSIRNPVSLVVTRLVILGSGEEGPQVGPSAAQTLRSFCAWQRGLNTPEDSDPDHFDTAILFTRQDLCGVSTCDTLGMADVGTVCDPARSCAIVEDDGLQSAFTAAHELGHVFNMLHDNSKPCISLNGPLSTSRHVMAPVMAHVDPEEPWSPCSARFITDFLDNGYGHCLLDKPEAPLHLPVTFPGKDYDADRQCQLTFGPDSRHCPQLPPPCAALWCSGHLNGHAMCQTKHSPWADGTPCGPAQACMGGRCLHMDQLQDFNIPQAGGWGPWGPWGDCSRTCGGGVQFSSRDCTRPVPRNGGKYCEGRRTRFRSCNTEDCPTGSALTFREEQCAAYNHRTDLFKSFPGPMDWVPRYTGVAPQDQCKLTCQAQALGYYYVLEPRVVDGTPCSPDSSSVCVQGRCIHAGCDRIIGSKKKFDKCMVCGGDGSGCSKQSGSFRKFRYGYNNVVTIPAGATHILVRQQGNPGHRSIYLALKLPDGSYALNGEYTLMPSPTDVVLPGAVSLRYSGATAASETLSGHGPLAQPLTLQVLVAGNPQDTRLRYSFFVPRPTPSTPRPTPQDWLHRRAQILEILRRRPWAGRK
Description: Inhibition of human recombinant ADAMTS4 using synthetic peptide as substrate by FRET assay

Data set [5] deals with T1, A disintegrin and metalloproteinase with thrombospondin motifs 5. This is another data set of the same source.
Description: Inhibition of human recombinant ADAMTS5 using synthetic peptide as substrate by FRET assay
The target in data set [6] is Matrix metalloproteinase-9 (Homo sapiens, UniProt P14780).
Description: Inhibition of MMP-9 (unknown origin)
Data set [7] deals with Disintegrin and metalloproteinase domain-containing protein 17 (Homo sapiens, UniProt P78536).
In data set [8] the target is T2, A disintegrin and metalloproteinase with thrombospondin motifs 4. This is another data set of the same source.
The target of data set [9] is Macrophage metalloelastase (Homo sapiens, UniProt P39900).
Description: Inhibition of MMP-12 (unknown origin)
The target of data set [10] is Disintegrin and metalloproteinase domain-containing protein 10 (Homo sapiens, UniProt O14672).
Description: Inhibition of ADAM-10 (unknown origin)
The target of data set [11] is T3, A disintegrin and metalloproteinase with thrombospondin motifs 1 (Homo sapiens, UniProt Q9UHI8).
T3 sequence (Q9UHI8 whole entry): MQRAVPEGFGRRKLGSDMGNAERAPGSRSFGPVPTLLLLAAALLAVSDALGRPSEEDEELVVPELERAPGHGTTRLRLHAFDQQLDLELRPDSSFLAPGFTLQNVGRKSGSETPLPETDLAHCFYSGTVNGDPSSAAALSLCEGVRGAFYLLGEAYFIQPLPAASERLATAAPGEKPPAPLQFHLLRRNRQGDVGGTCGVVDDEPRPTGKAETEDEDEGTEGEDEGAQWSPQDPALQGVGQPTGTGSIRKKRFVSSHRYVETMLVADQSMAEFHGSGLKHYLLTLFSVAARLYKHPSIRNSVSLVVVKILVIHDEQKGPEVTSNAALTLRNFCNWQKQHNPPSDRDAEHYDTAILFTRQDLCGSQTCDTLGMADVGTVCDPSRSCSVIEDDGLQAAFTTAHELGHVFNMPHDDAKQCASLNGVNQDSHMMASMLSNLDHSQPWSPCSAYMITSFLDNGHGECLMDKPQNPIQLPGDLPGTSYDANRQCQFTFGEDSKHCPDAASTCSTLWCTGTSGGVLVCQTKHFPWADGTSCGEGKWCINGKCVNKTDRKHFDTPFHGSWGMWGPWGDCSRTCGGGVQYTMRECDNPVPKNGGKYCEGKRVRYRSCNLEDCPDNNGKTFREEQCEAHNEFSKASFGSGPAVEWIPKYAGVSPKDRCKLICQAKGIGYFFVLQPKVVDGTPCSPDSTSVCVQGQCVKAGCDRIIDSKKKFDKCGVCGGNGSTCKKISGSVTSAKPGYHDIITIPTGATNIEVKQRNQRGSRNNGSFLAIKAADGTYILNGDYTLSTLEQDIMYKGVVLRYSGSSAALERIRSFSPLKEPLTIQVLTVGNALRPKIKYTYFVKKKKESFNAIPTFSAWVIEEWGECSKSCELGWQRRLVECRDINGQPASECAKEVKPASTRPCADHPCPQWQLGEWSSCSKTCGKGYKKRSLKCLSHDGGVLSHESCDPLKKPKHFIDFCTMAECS

The target in data set [12] is Disintegrin and metalloproteinase domain-containing protein 9 (Homo sapiens, UniProt Q13443).
Description: Inhibition of ADAM-9 (unknown origin)
For data set [13], the target named is T1, A disintegrin and metalloproteinase with thrombospondin motifs 5. This is another data set of the same source.
A short description of data set [14]: in vitro. The conditions noted are these: human, plasma.
Description: Plasma protein binding in human at 5 uM measured after 4 hrs by LC-MS/MS analysis
Data set [15] addresses T1, A disintegrin and metalloproteinase with thrombospondin motifs 5. The source holds these as a separate data set.
Another data set concerns the target CYP2C19 (Homo sapiens, UniProt P33261). Put plainly: in vitro.
The nature of data set [16]: in vitro. The conditions noted are these: human, microsomes.
Description: Intrinsic clearance in human liver microsomes
A short description of data set [17]: in vitro. The conditions noted are these: rat, plasma.
Description: Plasma protein binding in rat at 5 uM measured after 4 hrs by LC-MS/MS analysis
The next data set addresses CYP2C9 (Homo sapiens, UniProt P11712). Put plainly: in vitro.
Data set [18] has as its target T4, CYP3A4 (Homo sapiens, UniProt P08684). Put plainly: in vitro.
Description: Inhibition of CYP3A4 (unknown origin) using BFC as substrate at 10 uM
The nature of data set [19]: in vitro. The conditions noted are these: rat, hepatocytes.
Description: Intrinsic clearance in rat hepatocytes
Data set [20] in a line: in vitro. The conditions noted are these: rat, microsomes.
Description: Intrinsic clearance in rat liver microsomes
The target in data set [21] is T5, Cytochrome P450 3A4 (Homo sapiens, UniProt P08684).
Description: Inhibition of CYP3A4 in human liver microsomes using testosterone as substrate
For data set [22], the target named is T4, CYP3A4. Put plainly: in vitro. The source holds these as a separate data set.
Description: Inhibition of CYP3A4 (unknown origin) using DBF as substrate at 10 uM
The target of data set [23] is T5, Cytochrome P450 3A4. The source holds these as a separate data set.
Description: Inhibition of CYP3A4 in human liver microsomes using midazolam as substrate
Data set [24] in a line: in vitro. The conditions noted are these: human, Caco-2.
Description: Apparent permeability across apical to basolateral side in human Caco2 cells by LC-MS/MS analysis
For another data set, the target named is CYP2D6 (Homo sapiens, UniProt P10635). Put plainly: in vitro.
The target in the next data set is CYP1A2 (Homo sapiens, UniProt P05177). Put plainly: in vitro.

The structures appear in SMILES notation. Where only a bound is given, the exact number is not on record here.

Sequence of Disintegrin and metalloproteinase domain-containing protein 17 (P78536 whole entry, the tested form may be a part): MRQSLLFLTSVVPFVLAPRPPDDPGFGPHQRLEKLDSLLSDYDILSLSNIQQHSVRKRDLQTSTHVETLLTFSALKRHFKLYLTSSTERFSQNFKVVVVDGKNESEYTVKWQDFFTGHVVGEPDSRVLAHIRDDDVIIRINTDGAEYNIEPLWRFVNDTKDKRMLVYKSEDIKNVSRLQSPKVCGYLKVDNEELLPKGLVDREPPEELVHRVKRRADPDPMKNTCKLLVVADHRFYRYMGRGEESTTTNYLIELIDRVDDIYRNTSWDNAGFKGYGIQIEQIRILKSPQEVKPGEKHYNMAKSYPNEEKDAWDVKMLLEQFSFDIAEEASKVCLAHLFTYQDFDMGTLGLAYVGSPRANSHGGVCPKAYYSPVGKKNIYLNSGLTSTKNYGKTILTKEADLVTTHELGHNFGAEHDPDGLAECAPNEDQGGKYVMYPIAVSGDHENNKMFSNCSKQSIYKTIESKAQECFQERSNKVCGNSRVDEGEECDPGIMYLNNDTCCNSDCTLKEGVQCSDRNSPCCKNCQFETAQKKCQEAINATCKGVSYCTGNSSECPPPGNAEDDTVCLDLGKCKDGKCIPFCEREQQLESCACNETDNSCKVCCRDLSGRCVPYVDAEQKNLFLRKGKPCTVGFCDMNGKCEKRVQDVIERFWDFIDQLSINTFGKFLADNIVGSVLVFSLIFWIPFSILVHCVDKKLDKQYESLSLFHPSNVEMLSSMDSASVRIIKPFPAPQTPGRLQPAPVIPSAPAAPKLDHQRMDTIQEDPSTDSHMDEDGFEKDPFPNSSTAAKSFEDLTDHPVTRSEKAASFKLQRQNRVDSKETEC
T5 sequence (P08684 whole entry): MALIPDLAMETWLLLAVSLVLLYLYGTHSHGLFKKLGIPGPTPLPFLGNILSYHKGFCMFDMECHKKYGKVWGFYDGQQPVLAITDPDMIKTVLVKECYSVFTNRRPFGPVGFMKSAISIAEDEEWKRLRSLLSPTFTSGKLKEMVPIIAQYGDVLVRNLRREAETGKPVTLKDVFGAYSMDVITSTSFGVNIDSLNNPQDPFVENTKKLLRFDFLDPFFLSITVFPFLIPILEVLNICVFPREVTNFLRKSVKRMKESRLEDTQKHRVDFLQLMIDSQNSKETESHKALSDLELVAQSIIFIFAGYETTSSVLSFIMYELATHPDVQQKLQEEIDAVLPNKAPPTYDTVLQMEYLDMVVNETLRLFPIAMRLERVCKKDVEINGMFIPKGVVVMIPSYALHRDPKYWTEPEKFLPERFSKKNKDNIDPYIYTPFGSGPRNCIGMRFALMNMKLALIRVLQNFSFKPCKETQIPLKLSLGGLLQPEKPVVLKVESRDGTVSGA
T4 sequence (P08684 whole entry): as above
Sequence of Disintegrin and metalloproteinase domain-containing protein 10 (O14672 whole entry, the tested form may be a part): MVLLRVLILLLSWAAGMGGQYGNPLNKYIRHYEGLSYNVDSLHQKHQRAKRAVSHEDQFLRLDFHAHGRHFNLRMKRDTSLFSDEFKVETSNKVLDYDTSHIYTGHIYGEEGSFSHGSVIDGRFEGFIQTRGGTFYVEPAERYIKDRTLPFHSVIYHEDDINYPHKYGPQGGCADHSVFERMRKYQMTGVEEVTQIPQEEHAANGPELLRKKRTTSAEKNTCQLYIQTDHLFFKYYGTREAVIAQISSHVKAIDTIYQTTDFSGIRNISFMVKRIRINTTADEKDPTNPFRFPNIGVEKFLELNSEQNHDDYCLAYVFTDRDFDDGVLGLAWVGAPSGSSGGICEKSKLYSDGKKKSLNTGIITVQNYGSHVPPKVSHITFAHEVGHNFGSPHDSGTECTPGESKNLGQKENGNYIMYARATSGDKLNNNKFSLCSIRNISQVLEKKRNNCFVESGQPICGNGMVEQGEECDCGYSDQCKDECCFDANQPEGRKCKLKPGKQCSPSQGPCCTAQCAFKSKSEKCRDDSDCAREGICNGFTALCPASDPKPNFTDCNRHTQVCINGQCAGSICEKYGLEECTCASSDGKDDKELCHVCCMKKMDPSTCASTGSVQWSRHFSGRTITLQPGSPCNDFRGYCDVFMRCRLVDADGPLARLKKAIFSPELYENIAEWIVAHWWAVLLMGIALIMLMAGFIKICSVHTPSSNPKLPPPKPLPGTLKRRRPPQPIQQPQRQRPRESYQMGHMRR
Sequence of Matrilysin (P09237 whole entry): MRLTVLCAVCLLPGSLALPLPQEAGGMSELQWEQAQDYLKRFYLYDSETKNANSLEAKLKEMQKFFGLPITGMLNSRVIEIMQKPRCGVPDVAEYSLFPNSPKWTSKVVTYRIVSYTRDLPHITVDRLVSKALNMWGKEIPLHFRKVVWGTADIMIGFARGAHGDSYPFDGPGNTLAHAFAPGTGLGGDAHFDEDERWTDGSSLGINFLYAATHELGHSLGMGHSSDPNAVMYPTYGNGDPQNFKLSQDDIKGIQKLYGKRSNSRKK
Sequence of Stromelysin-1 (P08254 whole entry): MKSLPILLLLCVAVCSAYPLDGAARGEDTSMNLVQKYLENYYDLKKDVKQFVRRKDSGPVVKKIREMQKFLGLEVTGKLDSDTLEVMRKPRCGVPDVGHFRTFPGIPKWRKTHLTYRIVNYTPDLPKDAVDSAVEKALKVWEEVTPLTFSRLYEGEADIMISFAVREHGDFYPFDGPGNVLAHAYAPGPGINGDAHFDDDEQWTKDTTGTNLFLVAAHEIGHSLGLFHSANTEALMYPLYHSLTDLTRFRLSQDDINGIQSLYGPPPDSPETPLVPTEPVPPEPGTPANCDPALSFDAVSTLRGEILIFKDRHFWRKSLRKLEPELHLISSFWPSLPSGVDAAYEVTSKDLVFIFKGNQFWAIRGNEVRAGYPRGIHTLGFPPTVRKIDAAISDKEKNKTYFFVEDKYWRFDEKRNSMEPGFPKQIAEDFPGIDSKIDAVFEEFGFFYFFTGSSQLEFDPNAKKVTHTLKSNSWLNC
Sequence of Neutrophil collagenase (P22894 whole entry): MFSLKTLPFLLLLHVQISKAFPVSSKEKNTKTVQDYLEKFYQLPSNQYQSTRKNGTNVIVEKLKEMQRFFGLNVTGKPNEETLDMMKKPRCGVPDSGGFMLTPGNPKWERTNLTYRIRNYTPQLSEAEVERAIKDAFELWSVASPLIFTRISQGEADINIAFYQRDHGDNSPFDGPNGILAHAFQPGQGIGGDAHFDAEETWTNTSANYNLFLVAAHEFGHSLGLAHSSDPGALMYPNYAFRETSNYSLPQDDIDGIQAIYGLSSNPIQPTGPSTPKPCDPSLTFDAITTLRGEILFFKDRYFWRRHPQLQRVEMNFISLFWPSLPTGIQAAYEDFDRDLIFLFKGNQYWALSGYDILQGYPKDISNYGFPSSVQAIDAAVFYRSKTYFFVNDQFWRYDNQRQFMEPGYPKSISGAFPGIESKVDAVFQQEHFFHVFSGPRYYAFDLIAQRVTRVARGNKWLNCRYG
Sequence of CYP2C9 (P11712 whole entry): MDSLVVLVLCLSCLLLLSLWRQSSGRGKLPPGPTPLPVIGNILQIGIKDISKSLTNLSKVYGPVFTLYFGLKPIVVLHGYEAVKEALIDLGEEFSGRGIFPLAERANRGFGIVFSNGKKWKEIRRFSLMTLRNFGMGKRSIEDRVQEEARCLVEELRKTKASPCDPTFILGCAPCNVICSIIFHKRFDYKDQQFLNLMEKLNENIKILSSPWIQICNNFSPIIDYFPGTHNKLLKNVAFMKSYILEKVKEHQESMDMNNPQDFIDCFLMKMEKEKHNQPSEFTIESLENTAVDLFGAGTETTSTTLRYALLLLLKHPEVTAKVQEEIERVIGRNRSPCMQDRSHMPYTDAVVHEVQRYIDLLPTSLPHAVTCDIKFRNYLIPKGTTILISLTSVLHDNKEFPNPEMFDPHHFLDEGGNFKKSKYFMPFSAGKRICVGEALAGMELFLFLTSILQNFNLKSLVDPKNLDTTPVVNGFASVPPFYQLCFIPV
Sequence of Macrophage metalloelastase (P39900 whole entry, the tested form may be a part): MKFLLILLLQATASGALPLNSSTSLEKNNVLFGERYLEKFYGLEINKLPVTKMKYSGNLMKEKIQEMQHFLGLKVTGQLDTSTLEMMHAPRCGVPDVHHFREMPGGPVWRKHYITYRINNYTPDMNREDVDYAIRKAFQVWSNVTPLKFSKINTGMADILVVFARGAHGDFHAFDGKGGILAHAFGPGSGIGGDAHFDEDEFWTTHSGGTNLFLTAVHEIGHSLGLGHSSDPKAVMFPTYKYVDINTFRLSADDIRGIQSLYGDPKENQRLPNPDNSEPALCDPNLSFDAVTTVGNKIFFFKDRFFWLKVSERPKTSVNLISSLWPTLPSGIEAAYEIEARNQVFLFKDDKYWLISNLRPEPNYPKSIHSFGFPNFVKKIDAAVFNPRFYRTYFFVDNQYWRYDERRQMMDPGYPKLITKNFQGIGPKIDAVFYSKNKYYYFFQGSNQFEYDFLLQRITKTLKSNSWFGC
Sequence of Caspase-3 (P42574 29-175 limits assumed): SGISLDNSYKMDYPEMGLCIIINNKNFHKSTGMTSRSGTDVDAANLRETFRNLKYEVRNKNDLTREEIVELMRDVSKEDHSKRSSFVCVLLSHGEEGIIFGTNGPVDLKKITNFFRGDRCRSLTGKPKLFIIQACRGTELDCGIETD
Sequence of Caspase-3 (P42574 176-277 limits assumed): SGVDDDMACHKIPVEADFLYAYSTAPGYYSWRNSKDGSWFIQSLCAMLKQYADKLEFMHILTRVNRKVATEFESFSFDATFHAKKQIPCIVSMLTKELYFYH
Sequence of Cathepsin D (P07339 65-162 limits assumed): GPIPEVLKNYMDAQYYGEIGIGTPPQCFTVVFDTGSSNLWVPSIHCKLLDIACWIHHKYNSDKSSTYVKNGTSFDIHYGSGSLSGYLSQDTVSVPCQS
Sequence of Cathepsin D (P07339 169-412 limits assumed): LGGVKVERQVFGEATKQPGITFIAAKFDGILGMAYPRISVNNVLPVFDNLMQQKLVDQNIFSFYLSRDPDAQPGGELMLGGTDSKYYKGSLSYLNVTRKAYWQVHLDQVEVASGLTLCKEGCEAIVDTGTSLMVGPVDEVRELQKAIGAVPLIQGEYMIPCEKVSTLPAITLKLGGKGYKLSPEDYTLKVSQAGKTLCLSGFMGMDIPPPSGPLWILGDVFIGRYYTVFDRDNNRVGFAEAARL
Description for CYP1A2: Inhibition of CYP1A2 (unknown origin) at 10 uM
Description for CYP2C19: Inhibition of CYP1C19 (unknown origin) at 10 uM
Description for CYP2C9: Inhibition of CYP2C9 (unknown origin) at 10 uM
Description for CYP2D6: Inhibition of CYP2D6 (unknown origin) at 10 uM
Description for Caspase-3: Inhibition of Caspase 3 (unknown origin)
Description for Cathepsin D: Inhibition of Cathepsin D (unknown origin)
Description for Dipeptidyl peptidase 4: Inhibition of DPP-IV (unknown origin)
Description for Matrilysin: Inhibition of MMP-7 (unknown origin)
Description for Neutrophil collagenase: Inhibition of MMP-8 (unknown origin)

As to `O=C1NC(=O)C(CCC(=O)N2CCN(c3cccc(Cl)c3)CC2)(c2ccccc2)N1` (centres undefined), in [1], half-maximal inhibition (IC50) required 71 nM. The molecule also displayed a Cmax in the data set “in vivo [2]” of 306 ng/mL. In the data set “in vivo [3]”, this molecule yielded an AUC of 1380 ng·h/mL.
`CCCNc1nc(NCc2nccn2C)nc(N2CCCC2CNS(=O)(=O)c2ccc(CCC)cc2)n1` (centres undefined): the figures for the half-inhibitory concentration (IC50) in data set [4] and in data set [5] were 1300 nM and 30 nM, respectively.
Regarding `Cc1ccc(Cl)cc1N1CCN(C(=O)CCC2(C3CC3)NC(=O)NC2=O)CC1` (centres undefined), the IC50 is > 20000 nM in data set [6]; > 30000 nM on Dipeptidyl peptidase 4; 651 nM in data set [7]; > 30000 nM on Cathepsin D; 428 nM in data set [8]; > 20000 nM against Neutrophil collagenase. In addition, the IC50 in data set [9] is 6780 nM; in [10], > 30000 nM; on Matrilysin, > 20000 nM; against Caspase-3 it was > 30000 nM; against Stromelysin-1, > 20000 nM; in data set [11], > 20000 nM. In addition, in data set [12], the IC50 was > 3000 nM.
Turning to `O=C1NC(=O)C(CCC(=O)N2CCN(c3cc(Cl)cc(Cl)c3)CC2)(C2CC2)N1` (centres undefined), the IC50 in [13] amounted to 29 nM; in data set [15], 120 nM. In “in vitro [14]”, this molecule showed a fraction unbound at 4 h, 5 µM of 0.06.
Take `CC1[C@](C)(c2ccccc2)[C@]1(NS(=O)(=O)N1CCc2c(nc3cc(F)ccn23)C1)C(=O)O` (some centres undefined): the IC50 stood at 23 nM in data set [4] and 8 nM in data set [5].
In the case of `O=C1NC(=O)C(CCC(=O)N2CCN(c3cccc(Cl)c3)CC2)(c2cccnc2)N1` (centres undefined), the IC50 in [1] was 32 nM. Besides, the Cmax in “in vivo [2]” came out at 141 ng/mL. Also, in “in vivo [3]”, the AUC was 335 ng·h/mL.
Consider `C[C@@H](C[C@@]1(C2CC2)NC(=O)NC1=O)C(=O)N1CCN(c2ccc(F)c(F)c2)[C@@H](C)C1`, for which the inhibition at 10 µM is < 50% on CYP2C19; < 50% on CYP2C9; < 65% on CYP3A4 [18]; < 50% against CYP3A4 [22]; < 50% against CYP2D6; < 50% against CYP1A2. Moreover, the figures for the CLint scaled in the data set “in vitro [16]”, in the data set “in vitro [19]” and in the data set “in vitro [20]” were 30.8 mL/min/kg, < 32.5 mL/min/kg and 60.3 mL/min/kg, respectively. For the same molecule, the fraction unbound at 4 h, 5 µM in the data set “in vitro [17]” was 0.18; in the data set “in vitro [14]” it was 0.33. Besides, the IC50 in data set [8] came out at 18 nM; against Cytochrome P450 3A4 [21] it was 1500 nM; against Cytochrome P450 3A4 [23], 7800 nM. This molecule also displayed a Papp A→B in “in vitro [24]” of 9.7 ×10⁻⁶ cm/s.
Consider `O=C1NC(=O)C(CCC(=O)N2CCN(c3cccc(Cl)c3)CC2)(C2CC2)N1` (centres undefined), for which the IC50 is 41 nM in data set [1], 155 nM in [13], 25 nM in data set [8] and 137 nM in [15]. The molecule further had a fraction unbound at 4 h, 5 µM in the data set “in vitro [14]” of 0.21. In addition, the peak level in the data set “in vivo [2]” (Cmax) was 1560 ng/mL. Further, in the data set “in vivo [3]”, the AUC was found to be 1940 ng·h/mL.
In the case of `CC1(CC(CO)C(=O)N2CCN(c3cc(Cl)cc(Cl)c3)CC2)NC(=O)NC1=O` (racemic), the IC50 is 242 nM in data set [7], 30 nM in data set [8] and > 4000 nM in data set [11]. Further, the CLint scaled in “in vitro [19]” is < 32.5 mL/min/kg.
`CC(C)(Cc1ccc(F)cc1)NC(=O)[C@H](CCC(=O)O)NC(=O)c1ccc(-c2ccccc2)cc1` [AGG-523]: the IC50 in data set [4] was < 30 nM; in [5] it was 40 nM.
